Test results reported in patent US20250340510A1, “Substituted Phenylbenzenesulfonamide Derivatives and Uses Thereof” (Nine Square Therapeutics Corporation, priority 2022, published 2025).

Target: TRPML1 (Homo sapiens, UniProt Q9GZU1)
Experiment: Calcium flux in HEK293 overexpressing TRPML1 plasma membrane variant (FLIPR, Calcium 6 dye)
Format: cell-based
Conditions: HEK293/TRPML1-PM clone A5 cells; 4-parameter logistic fit; read-out: TRPML1 calcium flux (FLIPR) dose response: EC50
Source text: Example B1. Calcium Flux in HEK293 Overexpressing TRPML1 Plasma Membrane Variant—Calcium 6 Dye
Cells: HEK293/TRPML1-PM clone A5, clonal cell line containing mutant TRPML1 (both N- and C-terminal dileucine targeting motifs deleted) that localizes to the plasma membrane
Plates: Perkin Elmer Viewplate cat. #6007460, black optically clear, tissue culture treated 384-well plate
Calcium dye: Molecular Devices FLIPR Calcium 6 Assay Kit, cat. #R8190 or Fluo-4 Direct from Thermo Fisher, cat. #F10471
Tips: Molecular Devices 384-well FLIPR Tetra black tips, cat. #9000-0764 Example B1.2 Method
HEK293/TRPML1-PM clone A5 cells were trypsinized from flasks, counted, then diluted in media to 15,000 cells per 25 μL, and seeded into a black, 384-well viewplate, and cultured overnight.
One vial of calcium 6 dye was diluted with 10 mL of assay buffer (HBSS+20 mM HEPES pH 7.4) and 25 μL of the dilution was added per well to the cells.
After incubating for 2 hours at 37° C., the plate was moved to the FLIPR in the read position.
The compounds were diluted in EMEM with 0.125% FBS to 5× concentration and loaded in a 384-well plate according to the desired plate map for the assay, including DMSO alone and carbachol controls, then the plate was moved to the FLIPR in the source 2 position.
A box of tips was placed in the source 1 position within the FLIPR to complete the assay set up.
Once the run was started, an initial baseline fluorescent measurement was performed for 10 seconds (470-495 nm excitation and 515-575 nm emission) prior to adding the compounds.
12.5 μL of 5× test compound, DMSO alone, or carbachol were added via the FLIPR and real-time fluorescence measurements were performed for an additional 170 seconds with 1 read per second.
The data was normalized to baseline by calculating maximum fluorescence minus minimum fluorescence and plotted as response (fold) over the baseline versus log ([…] concentration). The EC50 was determined using a 4-parameter logistic curve fit in Graphpad Prism 9.

TRPML1, sequence (Q9GZU1 17-572 limits assumed): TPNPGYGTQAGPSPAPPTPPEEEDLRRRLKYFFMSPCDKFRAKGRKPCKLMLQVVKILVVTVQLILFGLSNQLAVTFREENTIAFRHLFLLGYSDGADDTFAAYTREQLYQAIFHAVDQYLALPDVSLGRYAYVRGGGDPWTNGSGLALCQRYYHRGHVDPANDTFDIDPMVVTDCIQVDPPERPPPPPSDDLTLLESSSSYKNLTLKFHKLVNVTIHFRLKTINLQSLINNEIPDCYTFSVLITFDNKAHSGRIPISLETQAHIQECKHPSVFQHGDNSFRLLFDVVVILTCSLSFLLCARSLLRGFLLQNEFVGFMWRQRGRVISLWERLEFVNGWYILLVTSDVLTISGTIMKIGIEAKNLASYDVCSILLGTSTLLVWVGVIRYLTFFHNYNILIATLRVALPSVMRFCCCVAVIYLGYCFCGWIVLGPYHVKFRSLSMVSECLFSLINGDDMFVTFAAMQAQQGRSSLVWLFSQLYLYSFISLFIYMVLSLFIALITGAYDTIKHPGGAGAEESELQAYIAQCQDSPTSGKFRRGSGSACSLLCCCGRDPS

Compound	EC50
Cc1nn(C)cc1CN(C)c1ccccc1NS(=O)(=O)c1ccc(S(=O)(=O)N(C)C)cc1 [Compound 50, N1-(2-(((1,3-dimethyl-1H-pyrazol-4-yl)methyl)(methyl)amino)phenyl)-N4,N4-dimethylbenzene-1,4-disulfonamide]	6.55 µM
CN(CC1COC1)c1ccccc1NS(=O)(=O)c1ccc(S(=O)(=O)N(C)C)cc1 [Compound 47, N1,N1-dimethyl-N4-(2-(methyl(oxetan-3-ylmethyl)amino)phenyl)benzene-1,4-disulfonamide]	> 10 µM
Cc1cnccc1CN(C)c1ccccc1NS(=O)(=O)c1ccc(S(=O)(=O)N(C)C)cc1 [Compound 58, N1,N1-dimethyl-N4-(2-(methyl((3-methylpyridin-4-yl)methyl)amino)phenyl)benzene-1,4-disulfonamide]	6.88 µM
CN(Cc1cn2c(n1)CCC2)c1ccccc1NS(=O)(=O)c1ccc(S(=O)(=O)N(C)C)cc1 [Compound 83, N1-(2-(((6,7-dihydro-5H-pyrrolo[1,2-a]imidazol-2-yl)methyl)(methyl)amino)phenyl)-N4,N4-dimethylbenzene-1,4-disulfonamide]	> 30 µM
CN(Cc1cnsc1)c1ccccc1NS(=O)(=O)c1ccc(S(=O)(=O)N(C)C)cc1 [Compound 101, N1-(2-((isothiazol-4-ylmethyl)(methyl)amino)phenyl)-N4,N4-dimethylbenzene-1,4-disulfonamide]	3.02 µM
CN(C)S(=O)(=O)c1ccc(S(=O)(=O)Nc2ccccc2N(C=O)Cc2cncs2)cc1 [Compound 61, N-(2-((4-(N,N-dimethylsulfamoyl)phenyl)sulfonamido)phenyl)-N-(thiazol-5-ylmethyl)formamide]	> 30 µM
CN(CCN1CCOCC1)c1ccccc1NS(=O)(=O)c1ccc(S(=O)(=O)N(C)C)cc1 [Compound 15, N1,N1-dimethyl-N4-(2-(methyl(2-morpholinoethyl)amino)phenyl) benzene-1,4-disulfonamide]	> 10 µM
CN(C)S(=O)(=O)c1ccc(S(=O)(=O)Nc2ccccc2N(C(=O)C(F)(F)F)C2CCCCC2)cc1 [Compound 63, N-cyclohexyl-N-(2-((4-(N,N-dimethylsulfamoyl)phenyl)sulfonamido)phenyl)-2,2,2-trifluoroacetadmie]	11 µM
CN1CCC(N(C)c2ccccc2NS(=O)(=O)c2ccc(S(=O)(=O)N(C)C)cc2)CC1 [Compound 21, N1,N1-dimethyl-N4-(2-(methyl(1-methylpiperidin-4-yl)amino)phenyl)benzene-1,4-disulfonamide]	> 10 µM
CN(Cc1cncn1C)c1ccccc1NS(=O)(=O)c1ccc(S(=O)(=O)N(C)C)cc1 [Compound 56, N1,N1-dimethyl-N4-(2-(methyl((1-methyl-1H-imidazol-5-yl)methyl)amino)phenyl)benzene-1,4-disulfonamide]	> 10 µM
CN(c1cc(Cl)ccc1NS(=O)(=O)c1ccc(S(=O)(=O)N(C)C)cc1)C1CCCCC1 [Compound 2, N1-(4-chloro-2-(cyclohexyl(methyl)amino)phenyl)-N4,N4-dimethylbenzene-1,4-disulfonamide]	3 µM
CN(CCCn1cccn1)c1ccccc1NS(=O)(=O)c1ccc(S(=O)(=O)N(C)C)cc1 [Compound 105, N1-(2-((3-(1H-pyrazol-1-yl)propyl)(methyl)amino)phenyl)-N4,N4-dimethylbenzene-1,4-disulfonamide]	4.36 µM

Stronger by EC50, values ahead:

EC50	Compound
0.42 µM	COCC1(C)CCC(CN(C)c2ccccc2NS(=O)(=O)c2ccc(S(=O)(=O)N(C)C)cc2)CC1 (centres unmarked) [Compound 39, N1-(2-(((4-(methoxymethyl)-4-methylcyclohexyl)methyl)(methyl)amino)phenyl)-N4,N4-dimethylbenzene-1,4-disulfonamide]
2.06 µM	CN(Cc1cscn1)c1ccccc1NS(=O)(=O)c1ccc(S(=O)(=O)N(C)C)cc1 [Compound 45, N1,N1-dimethyl-N4-(2-(methyl(thiazol-4-ylmethyl)amino)phenyl)benzene-1,4-disulfonamide]
0.75 µM	CN(c1ccccc1NS(=O)(=O)c1ccc(S(=O)(=O)N(C)C)cc1)C1CCC1 [Compound 37, N1-(2-(cyclobutyl(methyl)amino)phenyl)-N4,N4-dimethylbenzene-1,4-disulfonamide]
0.28 µM	CN(c1c(NS(=O)(=O)c2ccc(S(=O)(=O)N(C)C)cc2)cccc1C(F)(F)F)C1CCCCC1 [Compound 109, N1-(2-(cyclohexyl(methyl)amino)-3-(trifluoromethyl)phenyl)-N4,N4-dimethylbenzene-1,4-disulfonamide]
2.37 µM	CCCN(C)c1ccccc1NS(=O)(=O)c1ccc(S(=O)(=O)N(C)C)cc1 [Compound 16, N1,N1-dimethyl-N4-(2-(methyl(propyl)amino)phenyl)benzene-1,4-disulfonamide]
2.14 µM	CN(c1cc(C#N)ccc1NS(=O)(=O)c1ccc(S(=O)(=O)N(C)C)cc1)C1CCCCC1 [Compound 88, N1-(4-cyano-2-(cyclohexyl(methyl)amino)phenyl)-N4,N4-dimethylbenzene-1,4-disulfonamide]
2.14 µM	Cc1ncc(F)cc1CN(C)c1ccccc1NS(=O)(=O)c1ccc(S(=O)(=O)N(C)C)cc1 [Compound 75, N1-(2-(((5-fluoro-2-methylpyridin-3-yl)methyl)(methyl)amino)phenyl)-N4,N4-dimethylbenzene-1,4-disulfonamide]
0.82 µM	COCC1(C)CCC(N(C)c2ccccc2NS(=O)(=O)c2ccc(S(=O)(=O)N(C)C)cc2)CC1 (centres unmarked) [Compound 42, N1-(2-((4-(methoxymethyl)-4-methylcyclohexyl)(methyl)amino)phenyl)-N4,N4-dimethylbenzene-1,4-disulfonamide]
2.18 µM	Cc1cccc(N(C)C2CCCCC2)c1NS(=O)(=O)c1ccc(S(=O)(=O)N(C)C)cc1 [Compound 36, N1-(2-(cyclohexyl(methyl)amino)-6-methylphenyl)-N4,N4-dimethylbenzene-1,4-disulfonamide]
0.27 µM	CN(c1ccccc1NS(=O)(=O)c1ccc(S(=O)(=O)N(C)C)cc1)C1CCC(F)(F)CC1 [Compound 41, N1-(2-((4,4-difluorocyclohexyl) (methyl)amino)phenyl)-N4,N4-dimethylbenzene-1,4-disulfonamide]
0.41 µM	CN(c1ccccc1NS(=O)(=O)c1ccc(S(=O)(=O)N(C)C)cc1)C1CC(F)(F)C1 [Compound 40, N1-(2-((3,3-difluorocyclobutyl) (methyl)amino)phenyl)-N4,N4-dimethylbenzene-1,4-disulfonamide]
2.56 µM	CN(Cc1ccccn1)c1ccccc1NS(=O)(=O)c1ccc(S(=O)(=O)N(C)C)cc1 [Compound 46, N1,N1-dimethyl-N4-(2-(methyl(pyridin-2-ylmethyl)amino)phenyl)benzene-1,4-disulfonamide]
0.24 µM	CN(c1c(Cl)cccc1NS(=O)(=O)c1ccc(S(=O)(=O)N(C)C)cc1)C1CCCCC1 [Compound 38, N1-(3-chloro-2-(cyclohexyl(methyl)amino)phenyl)-N4,N4-dimethylbenzene-1,4-disulfonamide]
1.4 µM	CN(CCc1nccs1)c1ccccc1NS(=O)(=O)c1ccc(S(=O)(=O)N(C)C)cc1 [Compound 90, N1,N1-dimethyl-N4-(2-(methyl(2-(thiazol-2-yl)ethyl)amino)phenyl)benzene-1,4-disulfonamide]
